# Measurements reported in ChEMBL document CHEMBL1201862, “PubChem BioAssay data set” (2004).
#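 Interpolation was linear, between the two tested concentrations surrounding the appropriate level; five concentrations were tested over 48 hours in 96-well plates. The concentration for 50% growth inhibition is given as GI50.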 The source made the active and inactive calls. Rule as the data show it: active = GI50 up to about 1.1 µM and inactive = higher.
# Tests used:
# Assay in all cases: inhibition of tumour cell growth, NCI panel, 48 h
# M19-MEL = tested on: M19-MEL
# SNB-78 = tested on: SNB-78
# KM-20L2 = tested on: KM-20L2
# DMS-273 = tested on: DMS-273
# HOP-18 = tested on: HOP-18
# XF498 = tested on: XF498
# RXF 631 = tested on: RXF 631
# DLD-1 = tested on: DLD-1
# DMS-114 = tested on: DMS-114
Compound,GI50 (M19-MEL),GI50 (SNB-78),GI50 (KM-20L2),GI50 (DMS-273),GI50 (HOP-18),GI50 (XF498),GI50 (RXF 631),GI50 (DLD-1),GI50 (DMS-114)
c1ccc2c(c1)N=C(c1cccc3ccccc13)CC(c1ccc3c(c1)OCO3)S2 (stereo not given),> 100 µM (inactive),> 100 µM (inactive),> 100 µM (inactive),> 100 µM (inactive),> 100 µM (inactive),> 100 µM (inactive),> 100 µM (inactive),> 100 µM (inactive),–
Oc1cc(-c2cccc(Cl)c2)nc2cc3c(cc12)OCO3,0.327 µM (active),–,–,0.327 µM (active),1.5 µM (inactive),1.4 µM (inactive),–,0.245 µM (active),0.296 µM (active)
CCOC(=O)C(C)(C)Oc1ccc2c(-c3ccccc3)cc(=O)oc2c1,32.2 µM (inactive),–,30.6 µM (inactive),29 µM (inactive),–,16.4 µM (inactive),–,25.3 µM (inactive),21.9 µM (inactive)
CC(=O)/C(=N\O)C(=O)NCc1ccccc1,–,> 100 µM (inactive),> 100 µM (inactive),> 100 µM (inactive),> 100 µM (inactive),–,> 100 µM (inactive),> 100 µM (inactive),29.4 µM (inactive)
O=C(CN1CCN(c2ccccc2)CC1)N1CCc2c([nH]c3ccccc23)C1c1cccnc1 (stereo not given),> 95.9 µM (inactive),13.5 µM (inactive),> 100 µM (inactive),49 µM (inactive),> 100 µM (inactive),24.1 µM (inactive),33.3 µM (inactive),> 53 µM (inactive),26.9 µM (inactive)
N#Cc1cc([N+](=O)[O-])ccc1NC(=O)C(=O)Nn1c(S)nc2ccccc2c1=O,> 100 µM (inactive),> 100 µM (inactive),> 100 µM (inactive),–,> 100 µM (inactive),> 100 µM (inactive),> 100 µM (inactive),> 100 µM (inactive),–
O=[N+]([O-])c1ccc(-c2ccc(C3=Nn4c(CNc5ccccc5Cl)nnc4SC3)o2)cc1,> 100 µM (inactive),> 100 µM (inactive),> 100 µM (inactive),> 100 µM (inactive),–,> 100 µM (inactive),–,> 100 µM (inactive),–
CCN(CC)CC(C)(C)C(=O)/C=C/c1ccc(/C=C/C(=O)C(C)(C)CN(CC)CC)cc1,0.687 µM (active),1.41 µM (inactive),0.617 µM (active),0.234 µM (active),–,0.317 µM (active),–,0.341 µM (active),0.266 µM (active)
CCCCCCCCCC[C@@H](O)[C@@H]1CC[C@@H]([C@@H]2CC[C@@H]([C@@H](O)CCCCCCCCCC[C@H](O)CC3=CC(C)OC3=O)O2)O1 (stereo not given in full),2.22 µM (inactive),3.8 µM (inactive),13.6 µM (inactive),2.36 µM (inactive),–,–,1.97 µM (inactive),3.31 µM (inactive),< 0.01 µM (active)
CC(=O)O[C@@]12CO[C@@H]1C[C@H](O)[C@@]1(C)C(=O)[C@H](O)C3=C(C)[C@@H](OC(=O)[C@H](O)[C@@H](NC(=O)OC(C)(C)C)c4ccccc4)C[C@@](O)([C@@H](OC(=O)c4ccccc4)[C@H]21)C3(C)C [DOCETAXEL],< 0.01 µM (active),–,< 0.01 µM (active),< 0.01 µM (active),29.9 µM (inactive),–,< 0.01 µM (active),< 0.01 µM (active),< 0.01 µM (active)
CC(=O)N1CCC2(C=Nc3ccccc32)CC1,> 100 µM (inactive),> 100 µM (inactive),> 100 µM (inactive),> 100 µM (inactive),> 100 µM (inactive),> 100 µM (inactive),–,> 100 µM (inactive),> 100 µM (inactive)
CN(C)CCNC(=O)c1cccc2c1nc(-c1ccc(F)cc1)c1ccccc12,5.52 µM (inactive),10.7 µM (inactive),–,2.15 µM (inactive),14.4 µM (inactive),–,–,2.45 µM (inactive),4.42 µM (inactive)
CC1=C(C(=O)Nc2ccccc2)C(c2ccc(N(C)C)cc2)C(C(=O)Nc2ccccc2)=C(C)N1,0.685 µM (active),> 37.1 µM (inactive),0.439 µM (active),0.428 µM (active),> 100 µM (inactive),> 100 µM (inactive),–,8.36 µM (inactive),0.211 µM (active)
Cn1nc2ccc3nccc(NCCNCCO)c3c2n1,40.4 µM (inactive),36.2 µM (inactive),25.8 µM (inactive),–,–,35 µM (inactive),–,33.2 µM (inactive),–
Cc1ccc(NC(=O)/C(Cl)=C(/Cl)C(=O)O)cc1,16 µM (inactive),30.1 µM (inactive),22.4 µM (inactive),22.1 µM (inactive),19.1 µM (inactive),–,24.4 µM (inactive),16.4 µM (inactive),20 µM (inactive)
COc1ccc(NC(=O)C2C(=O)N(c3ccc(OC)cc3)C(=O)/C2=N/O)cc1 (stereo not given),26.5 µM (inactive),46.8 µM (inactive),48 µM (inactive),26.8 µM (inactive),17.9 µM (inactive),14 µM (inactive),–,64.4 µM (inactive),35.6 µM (inactive)
NNC(=O)C(=O)N/N=C1/CCCC1C(=O)CCC(=O)Nc1ccc(Cl)cc1 (stereo not given),89.3 µM (inactive),> 100 µM (inactive),6.04 µM (inactive),37.3 µM (inactive),> 100 µM (inactive),> 100 µM (inactive),> 100 µM (inactive),> 100 µM (inactive),63 µM (inactive)
CCCCCCCCCC(=O)N[C@H]1CCc2cc(OC)c(OC)c(OC)c2-c2ccc(SC)c(=O)cc21,0.0445 µM (active),0.0405 µM (active),0.0198 µM (active),< 0.01 µM (active),–,0.022 µM (active),0.0197 µM (active),0.0352 µM (active),0.0188 µM (active)
COc1ccc(/C=C\c2cc(OC)c(OC)c(OC)c2)cc1OC,–,0.0171 µM (active),0.0771 µM (active),0.0207 µM (active),0.411 µM (active),0.122 µM (active),0.195 µM (active),0.173 µM (active),0.105 µM (active)
O=C(Cc1ccccc1)NN1C(=O)C(Cl)C1c1cccc(O)c1 (stereo not given),18 µM (inactive),15.8 µM (inactive),15.1 µM (inactive),16.1 µM (inactive),20.6 µM (inactive),20.1 µM (inactive),–,14.8 µM (inactive),13.8 µM (inactive)
COC(=O)C1Cc2c([nH]c3ccccc23)[C@H](CC(C)C)N1 (stereo not given in full),> 100 µM (inactive),> 100 µM (inactive),> 100 µM (inactive),> 100 µM (inactive),> 100 µM (inactive),> 100 µM (inactive),–,> 100 µM (inactive),> 100 µM (inactive)
[O-][S+](c1ccc(O)cc1)c1ccc(O)cc1,> 100 µM (inactive),–,> 100 µM (inactive),> 100 µM (inactive),–,> 100 µM (inactive),> 100 µM (inactive),> 100 µM (inactive),> 100 µM (inactive)
Nc1nc(O)c2c(ncn2CC(O)CO)n1 (stereo not given),> 100 µM (inactive),> 100 µM (inactive),> 100 µM (inactive),> 100 µM (inactive),> 100 µM (inactive),–,> 100 µM (inactive),> 100 µM (inactive),> 100 µM (inactive)
OC1[C@H]([C@H]2CCCC[C@@H]2O)CCC[C@@H]1[C@@H]1CCCC[C@H]1O (stereo not given in full),> 100 µM (inactive),48.2 µM (inactive),> 100 µM (inactive),> 100 µM (inactive),> 100 µM (inactive),> 100 µM (inactive),–,> 100 µM (inactive),> 100 µM (inactive)
c1ccc(CN2CCc3[nH]c4ccccc4c3C2)cc1,26.5 µM (inactive),35.6 µM (inactive),15 µM (inactive),56.2 µM (inactive),99.8 µM (inactive),24.2 µM (inactive),18.8 µM (inactive),37.8 µM (inactive),19.8 µM (inactive)
Cn1c(=O)ccc2cc(C(=O)c3ccccc3)ccc21,55.3 µM (inactive),–,73.5 µM (inactive),35.3 µM (inactive),36.6 µM (inactive),16.7 µM (inactive),64.3 µM (inactive),> 100 µM (inactive),22.1 µM (inactive)
C=CC(Br)(CBr)CCC(Br)C(C)(C)Br (stereo not given),14.3 µM (inactive),5.56 µM (inactive),–,10.7 µM (inactive),15.5 µM (inactive),–,–,17.2 µM (inactive),11.6 µM (inactive)
